Measured values taken from publication PMC5561046, “Cytochrome P450/ABC transporter inhibition simultaneously enhances ivermectin pharmacokinetics in the mammal host and pharmacodynamics in Anopheles gambiae” (Scientific Reports, 2017).
Several values for one entry are separate records, joined by “and”; a condition that tells them apart may be missing. Equal entries are not always repeated. Entries after “also recorded” stand apart in the source; their conditions may differ.

Assays:
[1] = Drug-drug interaction study: ivermectin plasma pharmacokinetics in mini-pigs; conditions: for AUC inf, Median (Range) / Cmax, Median (Range) / AUC > LD50, Median (Range) / Time > LD50, Median (Range): group median (range); for AUC inf, Median (Range) / Cmax, Median (Range): plasma ivermectin, single oral 800 mcg/kg; for AUC inf, Median (Range) / Cmax, Median (Range) / AUC > LD50, Median (Range) / Time > LD50, Median (Range) / Time > LD50: treatment group as in the label; for AUC > LD50, Median (Range): area under the plasma ivermectin curve above 6 ng/ml; for AUC > LD50, Median (Range) / Time > LD50, Median (Range) / Time > LD50: oral 800 mcg/kg; for Time > LD50, Median (Range): time plasma ivermectin is above 6 ng/ml; for Time > LD50: individual mini-pig, time plasma ivermectin is above 6 ng/ml (10-day LC50 for Anopheles gambiae)
Description: (§1) The experiments were conducted following a randomised crossover design (Fig. 1). In phase I all mini-pigs received a single 800 mcg/kg dose of oral ivermectin and sampling was done as described below. […] The total wash-out period between ivermectin doses was 30 days. […] Inhibiting the P-gp could theoretically lead to toxicity due to abnormal accumulation of the drug in the brain[30], [31]. […] Irrespectively of this, drug quantification in cerebrospinal fluid (CSF) was added as an additional safety point. Rifampicin a CYP/P-gp inducer[49] was included as we expected to see reduced bioavailability and penetration into CSF.
The pre-medication drugs were administered by crushing the tablets and mixing them with canned meat products used for enrichment. For ivermectin administration and sampling during the first 8 hours, the animals were sedated with a single intramuscular dose of tiletamine-zolazepan (4 mg/kg) and maintained with inhalatory isoflurane (1.5–2%). In pigs, there is no evidence of a significant interaction (other than being a substrate) of these drug classes with the CYP3A4 or the P-gp[80]. Ivermectin was administered via nasogastric tube.
For blood sampling during the first eight hours, a femoral line was left in place and later removed during recovery from anaesthesia. Blood sampling thereafter was done by jugular puncture under restrain. […] For the mosquito bioassay, additional serum samples were obtained at every time point, and frozen at −20 °C.
Blood samples were drawn in 3 ml EDTA tubes and centrifuged. Plasma was separated and frozen at −20 °C until analysis. CSF samples were frozen at −20 °C.
(§2) Ivermectin levels in plasma and CSF were determined using a validated adaptation of a previously described HPLC-FLD[82]. The detection limit in plasma and CSF was 0.1 ng/ml, the quantification limit was 0.5 ng/ml.
Pharmacokinetic analyses were performed using Phoenix WinNonlin 6.4 (Certara, Princeton, NJ, USA). Pharmacokinetic parameters were derived from non-compartmental analyses.
The comparison of PK parameters between ivermectin groups was done by means of a two-sided Mann-Whitney test.

[2] = minipig, in vivo
Description: as §1
For obtaining CSF samples during the first 8 hours, an intrathecal catheter was placed by means of fluoroscopy-guided lateral lumbar puncture[81] (Fig. 5). Given the challenges posed by the particular anatomy of the pig, efforts were done to tunnel the intrathecal catheter and connect it to a subcutaneous reservoir in order to avoid repeating the technically demanding lumbar puncture during phase II of the study (Fig. 5). […] Sampling points for CSF were: pre-treatment and at 0.5, 1, 2, 3, 4, 5, 6, 7 and 8 hours. […]
as §2

[3] = Clinical observation of mini-pigs for adverse events / ivermectin toxicity signs; type: in vivo, mini-pig; conditions: oral ivermectin 800 mcg/kg with or without ketoconazole or rifampicin pre-treatment
Description: Six hybrid mini-pigs (2 male, 4 female) weighing between 46 and 70 kg were procured from our accredited breeding centre at the University of Navarra. They were housed individually throughout the study at the animal research facilities in the University of Navarra. From arrival onward, the animals were assessed daily for general wellbeing and after the intervention, also for specific ivermectin toxicity signs.

Anopheles gambiae [4] = test: Synergistic mosquito bioassay: membrane feeding with mini-pig serum samples, mortality follow-up; type: in vivo, Anopheles gambiae s.s.; conditions: for Mean survival / Time to median mortality: Anopheles gambiae, membrane feeding
Description: Mosquitoes were membrane fed with reconstituted blood as described by Bousema et al.[51].
Since mosquitoes grouped in cups for feeding, we used a cluster design in which the unit of intervention was mosquito cups. Our primary outcome was mean 10-day mosquito mortality after membrane feeding. Sample size calculations were conducted according to the method described by Gangnon and Kosorok[52]. The minimum expected 10-day mortality in mosquitoes imbibing blood containing 9.9 ng/ml of ivermectin is 66%; this is based on the predictive function described by Ouedraogo et al.[50]. Based on previous observations and with all mosquitoes having the same colony origin and age range, we chose a conservative intracluster correlation of 0.15. The frailty variance of clusters was resembled by a gamma of 1. All experiments were performed in triplicate. With these parameters, at least 4 clusters of 44 mosquitoes were needed per arm to achieve 80% power at 5% significance level accounting for 10% non-feeders.
Baseline serum samples collected before ivermectin treatment in ketoconazole and naïve pigs were used as controls. These samples were shipped frozen to the insectary facilities of the Ifakara Health Institute in Bagamoyo, Tanzania for membrane feeding assays. It was hypothesised that induction of the mosquito CYP/P-gp by rifampicin could improve survival in presence of ivermectin, but this could not be tested due to a reduced absorption of ivermectin in the mini-pigs pre-treated with rifampicin (see below).
For all experiments, we used the fully susceptible Anopheles gambiae s.s. colony maintained at the insectary in Bagamoyo. Mosquitoes were reared at 28 °C, 80% humidity and with a photoperiod of 12:12. Larvae were kept in large plastic bowls covered with netting containing approximately 2 litres of water with larval densities not exceeding one 4th instar larvae per ml. Larvae were fed Tetramine fish flakes ad libitum. Once they developed into pupae these were collected using disposable plastic Pasteur pipettes and transferred to small bowls containing approximately 200 ml of clean water. The pupae bowls were then placed inside fully screened cages (30 × 30 × 30 cm) where adult mosquitoes were allowed to emerge and given 10% glucose as a sugar source ad libitum.
Only mosquitoes of 2–5 days of age were used for the experiments. Before the experiments, mosquitoes were starved from sugar for 12–18 hours and from water for one hour. Hungry females were selected by applying a bottle with heated water (37–40 °C) to the cage. 40–50 hungry females were transferred to each paper cup using a mouth aspirator.
We performed membrane feeding assays with serum replacement as previously described. For each experiment, the selected pig sample was thawed and 1 ml of whole blood was centrifuged at 2100 rpm for 10 minutes. The serum volume was noted and replaced with the same amount of the sample pig-serum being tested. After this, tubes were inverted 10 times. Each sample was tested in triplicate.
In order to reduce potential confounding arising from variations in bloodmeal size, partially fed mosquitoes were discarded and only fully engorged females followed up for the mortality assessment. After each feeding experiment, the cups were placed on ice for 1–2 minutes to select and transfer fully engorged females.
Cups with fully engorged mosquitoes were kept at 24–26 °C and 65–70% relative humidity inside climate controlled incubators. Mosquitoes were maintained with 10% glucose solution using impregnated cotton. Mortality was recorded daily for 9 days by a person blinded to the allocation of the cups. Dead mosquitoes were removed from the cups daily.
Survival Kaplan-Meier analysis was performed in Addinsoft’s XLSTAT ® Version 2016.04.32229 (New York, NY, USA). Comparisons of survival patterns were done with Log-rank test using a 5% significance level adjusted for cluster design.

Anopheles gambiae [5] = test system: Anopheles gambiae; set-up: method as in PMID 25414262; conditions: cited from earlier work
[6] = cited from earlier work
CYP 3A4 = test system: CYP 3A4; set-up: method as in PMID 19255936; conditions: estimated; cited from earlier work
[7] = Pair 1: ivermectin 9.98 (IVM) vs 8.96 (KET) ng/ml in the fed sample
[8] = Pair 2: ivermectin 16.5 (IVM) vs 17.23 (KET) ng/ml in the fed sample
[9] = Pair 3: ivermectin 20.46 (IVM) vs 20.39 (KET) ng/ml in the fed sample
[10] = Pair 4: ivermectin 27.58 (IVM) vs […] (KET) ng/ml in the fed sample

## CCC(C)C1OC2(CCC1C)CC1CC(CC=C(C)C(OC3CC(OC)C(OC4CC(OC)C(O)C(C)O4)C(C)O3)C(C)C=CC=C3COC4C(O)C(C)=CC(C(=O)O1)C34O)O2 (stereo not shown) [Ivermectin]
[1]; listed as Ivermectin 1
  AUC inf, Median (Range): 244 (1899) h·ng/mL
  Cmax, Median (Range): 8.7 (26.0) ng/mL
  AUC > LD50, Median (Range): 23.7 (509.4) h·g/mL
  Time > LD50, Median (Range): 4.6 (46.7) h
  Time > LD50: 9.3 h
[1]; listed as Ivermectin 2
  AUC inf, Median (Range): 1205.3 (349) h·ng/mL
  Cmax, Median (Range): 18 (5.6) ng/mL
  AUC > LD50, Median (Range): 297.6 (142.6) h·g/mL
  Time > LD50, Median (Range): 49.9 (9.1) h
  Time > LD50: 54.5 h and 45.4 h
[1]; listed as Ivermectin(combined)
  AUC inf, Median (Range): 862.7 (1899) h·ng/mL
  Time > LD50: 46.7 h and 27.2 h and 0.0 h
[1]; ketoconazole pre-treatment vs ivermectin alone, mini-pigs
  increase in ivermectin time above LC50: 3 fold
[1]; plasma ivermectin in mini-pigs, ivermectin alone (combined) vs ketoconazole pre-treatment, P = 0.033
  median Cmax: 14 ng/mL
[1]; plasma ivermectin in mini-pigs, ivermectin alone (combined) vs ketoconazole pre-treatment, P = 0.067, not significant
  total AUC: 862 ng·h/mL
[2]
  ivermectin concentration in CSF: < 0.5 ng/mL
  number of CSF samples in which ivermectin was detectable: 4
[3]
  clinical adverse events: No clinical adverse events were observed
Anopheles gambiae [4]; [7]
  Mean survival: 6.73 (6.29–7.17) days
  Time to median mortality: 7 days
Anopheles gambiae [4]; [8]
  Mean survival: 5.11 (4.63–5.86) days
  Time to median mortality: 5 days
Anopheles gambiae [4]; [9]
  Mean survival: 7.43 (7.11–7.75) days
  Time to median mortality: 7 days
Anopheles gambiae [4]; [10]
  Mean survival: 5.28 (4.54–6.02) days
  Time to median mortality: 5 days
Anopheles gambiae [5]; kills 50% of Anopheles gambiae in 10 days
  10-day lethal concentration 50 (LC50): 6 ng/ml
Anopheles gambiae [5]; mosquitoes imbibing blood containing 9.9 ng/ml of ivermectin, from predictive function
  minimum expected 10-day mortality: 66%
[6]; after the single dose of 200 mcg/kg commonly used for NTDs, no reference given
  time for which concentrations that kill 50% of Anopheles gambiae in 10 days are sustained: around 72 hours
[6]
  half-life: 18 h

## CC(=O)N1CCN(c2ccc(OCC3COC(Cn4ccnc4)(c4ccc(Cl)cc4Cl)O3)cc2)CC1 (stereo not shown) [ketoconazole]
Anopheles gambiae [4]; ketoconazole at CYP inhibition concentrations, matched ivermectin concentrations (+/−1 ng/ml), all four pairs
  effect on mortality of Anopheles gambiae fed samples containing ivermectin: significantly increased the mortality
Anopheles gambiae [4]; ketoconazole-only baseline pig sample vs fully drug-free sample, Log-rank P = 0.048, n = 222
  effect on 10-day mortality of Anopheles gambiae: did not increase the mortality
CYP 3A4
  IC50: […]

## CO[C@H]1/C=C/O[C@@]2(C)Oc3c(C)c(O)c4c(O)c(c(/C=N/N5CCN(C)CC5)c(O)c4c3C2=O)NC(=O)/C(C)=C\C=C\[C@H](C)[C@H](O)[C@@H](C)[C@@H](O)[C@@H](C)[C@H](OC(C)=O)[C@@H]1C [rifampicin, Rifampicin]
[1]; rifampicin pre-treatment (CYP/P-gp induction), mini-pigs, oral ivermectin 800 mcg/kg
  effect of pre-treatment on ivermectin absorption: markedly impaired ivermectin absorption; also recorded: seriously hampered ivermectin absorption
